Measured values published in article PMC6736568, “Discovery of Novel Anti-cryptosporidial Activities From Natural Products by in vitro High-Throughput Phenotypic Screening” (Frontiers in Microbiology, 2019).
Counter-ions that a name gives are not always drawn. Like-named read-outs stand apart in the source and are kept apart here.

Experiments:
[1] = test system: Cryptosporidium parvum; test: qRT-PCR assay of the growth of C. parvum in vitro in HCT-8 host cells (primary and secondary screening, EC50); assay type: cell-based; conditions: Cryptosporidium parvum, HCT-8; for inhibition at 10 µM: primary screening at 10 uM, read-out: Inhibition (%); for inhibition at 3.3 µM: secondary screening at 3.3 uM, read-out: % Inhibition (3.3 uM)
[2] = test system: HCT-8 host cells (Hs18S)
[3] = in vitro
[4] = primary screening at 10 uM, treated vs control

| Compound | inhibition at 10 µM [1] [%] | inhibition at 3.3 µM [1] [%] | Hs18S ΔCT ([2]; human, 41 h, 10 μM) | cytotoxicity at 41 h, 10 µM ([3]; human) [%] | Hs18S ΔCT [2, 4] | cytotoxicity at 10 µM [3] [%] | cytotoxicity at 41 h, 10 µM [3] [%] |
| --- | --- | --- | --- | --- | --- | --- | --- |
| COC(=O)C[C@H]1C(C)(C)C2(O)OC34CC2C(=O)[C@]1(C)C3CC[C@]1(C)C4=CC(=O)O[C@H]1c1ccoc1 (stereo partly drawn) [8beta-HYDROXYCARAPIN, 3,8-HEMIACETAL] | 89.7 | 64 | 0.18 | 11.8 |  |  |  |
| COc1cc2c(cc1OC)C1(O)C(=O)c3ccc(O)c(C(=O)O)c3OC1CO2 (centres unmarked) [12a-HYDROXY-9-DEMETHYLMUNDUSERONE-8-CARBOXYLIC ACID] | 0.54 |  |  |  | 0.06 | 4.1 |  |
| Cc1ccc2c(c1)CC[C@H]1CC(=O)CC[C@]21C [13-METHYL-4,4-BISNOR-8,11,13-PODOCARPATRIEN-3-ONE] | -31.4 |  | -0.03 | -2 |  |  |  |
| C/C1=C\CCC(=O)C2CC(C)(C)C2CC1 (centres unmarked) [15-NORCARYOPHYLLEN-3-ONE] | -15.7 |  | -0.05 | -3.6 |  |  |  |
| CC(C)c1ccc2c(c1)CC[C@H]1[C@](C)(CN)CCC[C@]21C [18-AMINOABIETA-8,11,13-TRIENE SULFATE] | 47.6 |  | -0.19 | -13.9 |  |  |  |
| CC(=O)OCC(=O)[C@H]1CC[C@H]2[C@@H]3CC=C4C[C@@H](O)CC[C@]4(C)[C@H]3CC[C@]12C [21-ACETOXYPREGNENOLONE] | -41.2 |  | 0.10 | 6.5 |  |  |  |
| CC(C)C1=CC2=CC[C@@H]3[C@](C)(CCC[C@@]3(C)C(=O)O)[C@H]2CC1 [ABIETIC ACID] | -58.3 |  |  |  | -0.39 | -30.7 |  |
| C[C@H]1O[C@H](O[C@H]2[C@H](O)[C@@H](O)[C@@H](O[C@H]3[C@H](O)[C@@H](O)C(O)O[C@@H]3CO)O[C@@H]2CO)[C@H](O)[C@@H](O)[C@@H]1N[C@H]1C=C(CO)[C@@H](O)[C@H](O)[C@H]1O (some centres unmarked) [ACARBOSE] | 37.8 |  | 0.39 | 23.6 |  |  |  |
| COc1cc(C(C)=O)cc(OC)c1O [ACETOSYRINGONE] | -26.9 |  | -0.06 | -4 |  |  |  |
| CC(=O)Oc1c2c(c(CC=C(C)C)c3c1C(=O)C1=C[C@@H]4CC5C(C)(C)OC(C/C=C(\C)C(=O)O)(C4=O)[C@@]15O3)OC(C)(CCC=C(C)C)C=C2 (some centres unmarked) [ACETYL I[…]] | 95.2 | 27 |  |  | 1.57 | 66.4 |  |
| O=C(O)/C=C(\CC(=O)O)C(=O)O [ACONITIC ACID] | -3.59 |  | -0.01 | -0.7 |  |  |  |
| CCN1C[C@]2(COC)[C@H](O)C[C@H](OC)[C@@]34[C@@H]5C[C@@]6(O)[C@H](OC(=O)c7ccccc7)[C@@H]5[C@@](OC(C)=O)([C@@H]([C@H](OC)[C@H]23)[C@@H]14)[C@@H](O)[C@@H]6OC [ACONITINE] | 2.84 |  |  |  | -0.16 | -11.7 |  |
| CC(=O)O[C@@H]1C[C@@]23C[C@@]24CC[C@H](O[C@@H]2OC[C@@H](O)[C@H](O)[C@H]2O)C(C)(C)[C@@H]4CC[C@H]3[C@]2(C)C[C@@H]3O[C@]4(C[C@@H](C)[C@@H]3[C@@]12C)O[C@H](O)[C@@]1(C)O[C@@H]41 [ACTEIN] | 3.9 |  |  |  | -0.41 |  | -33.3 |
| CCCCC[C@H](CC(=O)NO)C(=O)N[C@H](C(=O)N1CCC[C@H]1CO)C(C)C [ACTINONIN] | 31.3 |  | -0.06 | -4.6 |  |  |  |
| Nc1ncnc2nc[nH]c12 [ADENINE] | -9.27 |  |  | -5.9 | -0.08 |  |  |
| Nc1ncnc2c1ncn2[C@@H]1O[C@H](COP(=O)(O)O)[C@@H](O)[C@H]1O [ADENOSINE PHOSPHATE] | 23.5 |  | -0.16 | -11.8 |  |  |  |
| Nc1ncnc2c1ncn2[C@@H]1O[C@H](CO)[C@@H](O)[C@H]1O [ADENOSINE] | -13.4 |  | 0.02 | 1.5 |  |  |  |
| OC[C@@H](O)[C@@H](O)[C@@H](O)CO [ADONITOL] | 6.19 |  | 0.26 | 16.4 |  |  |  |
| N=C(N)NCCCCN [AGMATINE SULFATE] | -2.93 |  |  |  | 0.21 | 13.5 |  |
| CC[C@H]1[C@@H]2C[C@H]3[C@@H]4N(C)c5ccccc5[C@]45C[C@@H]([C@H]2[C@H]5O)N3[C@@H]1O [AJMALINE] | -1.24 |  |  |  | 0.10 | 6.9 |  |
| O=C1c2ccccc2C(=O)c2c1ccc(O)c2O [ALIZARIN] | -42.4 |  |  |  | -0.13 | -9.1 |  |
| NC(=O)NC1NC(=O)NC1=O (centres unmarked) [ALLANTOIN] | 8.13 |  | -0.22 | -16.1 |  |  |  |
| CC(=O)[C@H]1CC[C@H]2[C@@H]3CC[C@H]4C[C@H](O)CC[C@]4(C)[C@H]3CC[C@]12C [ALLOPREGNANOLONE] | -52.5 |  |  |  | 0.02 | 1.3 |  |

| Compound | inhibition at 10 µM [1] [%] | inhibition at 3.3 µM [1] [%] | Hs18S ΔCT ([2]; human, 41 h, 10 μM) | cytotoxicity at 41 h, 10 µM ([3]; human) [%] | Hs18S ΔCT [2, 4] | cytotoxicity at 10 µM [3] [%] | cytotoxicity at 41 h, 10 µM [3] [%] |
| --- | --- | --- | --- | --- | --- | --- | --- |
| C=CCN=C=S [ALLYLISOTHIOCYANATE] | 25.7 |  | 0.28 | 17.7 |  |  |  |
| O=C1c2c(O)cccc2C([C@@H]2O[C@H](CO)[C@@H](O)[C@H](O)[C@H]2O)c2cc(CO)cc(O)c21 (some centres unmarked) [ALOIN] | -0.73 |  | -0.63 | -54.3 |  |  |  |
| C[C@@H]1[C@H](O)[C@@H](C)/C=C/C=C/C=C/C=C/C=C/C=C/C=C/[C@H](O[C@@H]2O[C@H](C)[C@@H](O)[C@H](N)[C@@H]2O)C[C@@H]2O[C@](O)(C[C@@H](O)C[C@@H](O)[C@H](O)CC[C@@H](O)C[C@@H](O)CC(=O)O[C@H]1C)C[C@H](O)[C@H]2C(=O)O [AMPHOTERICIN B] | -4.47 |  | 0.11 | 7.1 |  |  |  |
| N#C[C@H](O[C@@H]1O[C@H](CO[C@@H]2O[C@H](CO)[C@@H](O)[C@H](O)[C@H]2O)[C@@H](O)[C@H](O)[C@H]1O)c1ccccc1 [AMYGDALIN] | -15.6 |  |  |  | 0.07 | 4.8 |  |
| CN1CCCCC1c1ccc(-c2cccnc2)nc1 (centres unmarked) [ANABASAMINE HYDROCHLORIDE] | 8.75 |  |  |  | 0.40 | 24.3 |  |
| c1cncc([C@@H]2CCCCN2)c1 [ANABASINE HYDROCHLORIDE] | 6.88 |  |  |  | -0.08 | -5.5 |  |
| C=C1CC[C@@H]2[C@](C)(CO)[C@H](O)CC[C@@]2(C)[C@@H]1C/C=C1/C(=O)OC[C@H]1O [ANDROGRAPHOLIDE] | 38.8 |  | 0.08 | 5.3 |  |  |  |
| C/C=C/c1ccc(OC)cc1 [ANETHOLE] | -5.3 |  | -0.08 | -5.8 |  |  |  |
| COc1ccc([C@@H](C)C(=O)c2ccc(O)cc2O)cc1 [ANGOLENSIN (R)] | -26.9 |  | -0.17 | -12.5 |  |  |  |
| COc1ccc2c(=O)c(CC(=O)O)coc2c1 [ANHYDROBRAZILIC ACID] | 11.9 |  | -0.01 | -0.5 |  |  |  |
| COc1cc(O)cc(OC)c1OC [ANTIAROL] | 8.48 |  | 0.10 | 6.9 |  |  |  |
| CCCCCC[C@H]1C(=O)O[C@H](C)[C@H](NC(=O)c2cccc(NC=O)c2O)C(=O)O[C@@H](C)[C@@H]1OC(=O)CC(C)C [ANTIMYCIN A, ANTIMYCIN A (A1 shown)] | 10.9 |  |  |  | 0.12 | 7.7 |  |
| O=C(O)C1CC([C@@H]2CCCCN2)CN2CCCCC12 (some centres unmarked) [APHYLLIC ACID] | -28.5 |  | 0.25 | 16.1 |  |  |  |
| COc1ccc(-c2cc(=O)c3c(O)cc(OC)cc3o2)cc1 [APIGENIN DIMETHYL ETHER] | -37.8 |  |  |  | 0.17 | 11.3 |  |
| O=c1cc(-c2ccc(O)cc2)oc2cc(O)cc(O)c12 [APIGENIN] | -44.6 |  | 0.06 | 3.9 |  |  |  |
| OC[C@H]1O[C@@H](Oc2ccc(O)cc2)[C@H](O)[C@@H](O)[C@@H]1O [ARBUTIN] | 16.1 |  | 0.01 | 0.5 |  |  |  |
| COC(=O)C1=CCCN(C)C1 [ARECOLINE HYDROBROMIDE] | -6.72 |  |  |  | -0.47 | -38.7 |  |
| COc1cccc2c1cc([N+](=O)[O-])c1c(C(=O)O)cc3c(c12)OCO3 [ARISTOLOCHIC ACID] | 8.39 |  |  |  | -0.03 |  | -1.8 |
| C[C@@H]1CC[C@H]2[C@@H](C)C(=O)O[C@@H]3O[C@@]4(C)CC[C@@H]1[C@]32OO4 [ARTEMISININ] | 16.7 |  | 0.00 | 0 |  |  |  |
| CCCCCC(=O)Cc1cc(O)cc(O)c1C(=O)Oc1cc(CC(=O)CCCCC)c(C(=O)O)c(OC)c1 [ARTHONIOIC ACID] | -25.4 |  | 0.02 | 1.1 |  |  |  |
| O=C1O[C@H]([C@@H](O)CO)C(O)=C1O [ASCORBIC ACID] | 12 |  | 0.44 | 26.2 |  |  |  |
| C[C@H]1[C@H](C)CC[C@]2(C(=O)O)CC[C@]3(C)C(=CC[C@@H]4[C@@]5(C)C[C@@H](O)[C@H](O)[C@@](C)(CO)[C@@H]5CC[C@]43C)[C@H]12 [ASIATIC ACID] | 25.1 |  | -0.29 | -22.7 |  |  |  |
| CC1=C(/C=C/C(C)=C/C=C/C(C)=C/C=C/C=C(C)/C=C/C=C(C)/C=C/C2=C(C)C(=O)[C@@H](O)CC2(C)C)C(C)(C)C[C@H](O)C1=O [ASTAXANTHIN] | 45.1 |  | -0.43 | -34.8 |  |  |  |
